Measured values taken from article PMC4349960, “[^18F]FE@SUPPY: a suitable PET tracer for the adenosine A3 receptor? An in vivo study in rodents” (European Journal of Nuclear Medicine and Molecular Imaging, 2015).
Like-named read-outs stand apart in the source and are kept apart here.

Columns and labels:
human A3R = target: human A3R; parameters: method as in PMID 10052977; settings: read-out: Ki, affinity for human A3R; cited from earlier work
rat A3R [1] = settings: cited from earlier work
[2] = target: T1, CHO cells expressing the human A3R (CHO-A3) (Homo sapiens, UniProt P0DMS8); assay: Xenograft mouse model PET (CHO vs CHO-A3 solid tissue masses); type: in vivo, mice; settings: xenografted mice, static image 1 h after injection
T1 construct: Karl-Norbert Klotz (University of Würzburg); host or cells: CHO cells stably transfected (CHO-A3), grown as subcutaneous masses in NMRI-nu/nu mice
T1 sequence (P0DMS8 1-318): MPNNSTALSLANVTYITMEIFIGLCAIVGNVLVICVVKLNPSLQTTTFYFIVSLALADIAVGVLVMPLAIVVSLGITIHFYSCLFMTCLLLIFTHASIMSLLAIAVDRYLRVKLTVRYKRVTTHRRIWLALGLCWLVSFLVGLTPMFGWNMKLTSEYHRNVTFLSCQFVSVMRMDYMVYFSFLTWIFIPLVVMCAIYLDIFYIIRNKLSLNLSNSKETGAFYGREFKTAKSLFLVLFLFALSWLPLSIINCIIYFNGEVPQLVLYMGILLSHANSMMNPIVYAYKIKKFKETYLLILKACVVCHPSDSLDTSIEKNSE
Description: Adult male Sprague-Dawley rats (Him:OFA; Animal Research Institute, Himberg, Austria) weighing 307 ± 35 g were kept under controlled environmental conditions (22 ± 1 °C, 40 – 70 % humidity, 12-h light/dark cycle) with free access to standard laboratory animal diet and tap water. Before being used in the experiments, the animals were allowed to adapt to the new conditions for at least a week. Prior to each experiment, the animals were placed in a chamber containing 2.5 % isoflurane in oxygen. When unconscious, the animals were taken from the chamber and kept under anaesthesia with 1.8 % isoflurane administered via a mask during the whole experiment. Pathogen-free, female NMRI-nu/nu mice (Taconic, Denmark) weighing 28.1 ± 0.8 g were housed under sterile conditions. Mice were injected subcutaneously into both upper flanks with 100 μL of a cell suspension in phosphate-buffered saline containing 10^6 CHO cells (right side) or 10^6 CHO-A3 cells (left side). During the imaging periods of 60 or 90 min (rats or xenografted mice, respectively) the isoflurane level was adjusted depending on the depth of anaesthesia. A humidifier was used to moisten the gas mixture before supplying it to the animal.
Around 17 days after cell inoculation, animals in the xenograft group were positioned in the imaging chamber and a dynamic 90-min PET scan was initiated at the start of [^18F]FE@SUPPY injection (2.21 ± 0.75 MBq dissolved in 100 μl physiological saline, pH 7.4; three animals) via a tail vein under isoflurane anaesthesia (2 %). Additionally, in this group, [^18F]FDG PET was performed 1 day prior to the [^18F]FE@SUPPY experiments. […] In brief, mice were deprived of food for 6 – 8 h before [^18F]FDG injection via a tail vein. Mice had access to drinking water at all times. Body warming was achieved by placing the entire cage on a heating pad kept at 38 °C. Warming was started around 30 min before tracer injection and was continued throughout the uptake and imaging period. [^18F]FDG (6.03 ± 1.31 MBq dissolved in 100 μL physiological saline, pH 7.4; three animals) was injected via a tail vein under isoflurane anaesthesia (2 %). Mice were kept under isoflurane anaesthesia throughout the whole uptake and imaging period. A 10-min static image was acquired at 1 h after [^18F]FDG injection. […]
For all PET scans (rats and xenografted mice), list mode data were acquired with an energy window of 350 – 750 keV (rats) or 250 – 750 keV (mice) and a 6-ns timing window. Before each PET scan, a transmission scan using a ^57Co point source was recorded over 10 min. […] A calibration factor for converting units of microPET images into absolute radioactivity concentration units was first generated by imaging a phantom filled with a known concentration of [^18F]FDG. […]

[3] = Ex vivo stability/metabolism in rat plasma and brain after pretreatment; parameters: species or system rats; settings: rats, after blocking treatment
Description: To determine the influence of the four treatments (vehicle, MRS1523, FE@SUPPY, TQD) on uptake of [^18F]FE@SUPPY, stability was assessed in plasma and brain 60 min after tracer injection. Final blood samples (3 mL) were collected in heparin-buffered tubes, rat brains were washed with ice-cold water and homogenized in 0.9 % aqueous NaCl solution (1 mL) using an IKA T10 basic Ultra-turrax (IKA Laboratory Equipment, Staufen, Germany). […] Sample clean-up was performed by vortexing plasma with the equivalent amount of methanol/acetonitrile (9:1) for 1 min and by subsequent ultracentrifugation (10,000 rpm, 5 min) to remove precipitated proteins. The supernatants obtained were analysed by radio-HPLC (Agilent, Boeblingen, Germany) equipped with a series 1100 autosampler, a series 1200 quaternary pump, a series 1200 diode array detector and a lead-shielded BGO radiodetector. A Chromolith® Performance RP-18e (100 × 4.6 mm, 5 μm) column with a Chromolith® Performance RP-18e (4 x4 mm, 5 μm) precolumn was eluted at a flow rate of 2 mL/min using a mobile phase consisting of 60 % acetonitrile and 40 % water/acetic acid 97.5:2.5 and 32 mM ammonium acetate, pH 3.5. UV detection was performed at a wavelength of 254 nm. The retention time of [^18F]FE@SUPPY was 4.6 – 5.9 min (UV detection and radiodetection).

rat A3R [4] = assay: Affinity for rat A3R (literature binding data); settings: ratio of Ki values
A3R = target: T2, A3R (Rattus norvegicus, UniProt P28647); assay: Small-animal PET in rats: baseline and A3R blocking scans; type: in vivo; settings: blocker 2 mg/kg i.v. 30 min before tracer; for reduction in brain AUC of [^18F]FE@SUPPY as compared with DMSO administration: 0-60 min
T2 construct: Adult male Sprague-Dawley rats; from tissue; host or cells: living Sprague-Dawley rats, brain volume of interest in PET
T2 sequence (P28647 1-320): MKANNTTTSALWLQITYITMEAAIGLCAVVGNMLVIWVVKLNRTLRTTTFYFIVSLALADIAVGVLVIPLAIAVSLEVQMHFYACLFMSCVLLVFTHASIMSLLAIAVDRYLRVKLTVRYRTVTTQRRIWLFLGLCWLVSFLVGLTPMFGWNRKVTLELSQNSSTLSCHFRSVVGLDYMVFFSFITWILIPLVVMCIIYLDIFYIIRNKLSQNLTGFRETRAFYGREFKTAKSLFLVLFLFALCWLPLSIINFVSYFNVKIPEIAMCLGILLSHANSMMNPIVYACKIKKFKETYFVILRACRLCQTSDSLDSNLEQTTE
Description: A microPET Focus220 scanner (Siemens, Medical Solutions) was used for the experiments. It has 168 detector modules providing a 7.6-cm axial and 22-cm transaxial field of view. The resolution of the reconstructed images (filtered back projection) was 1.3 mm (full-width at half-maximum) in the central field of view and remained under 2 mm within the central 5 cm diameter field of view. For PET imaging two groups of animals (rats and xenografted mice) were investigated. Rats were divided into four groups. The first group received vehicle (dimethyl sulphoxide, DMSO) intravenously via a lateral tail vein 30 min prior to radiotracer administration (three animals, 14.3 – 70.1 MBq, 0.2604 ± 0.06 μg). The second group received MRS1523 – a selective A3R antagonist – at a dose of 2 mg/kg body weight (dissolved in DMSO, 4 mg/mL) intravenously via a tail vein 30 min prior to radiotracer administration (three animals, 18.8 – 59.1 MBq, 0.3443 ± 0.05 μg). The third group received unlabelled title compound FE@SUPPY (dissolved in DMSO, 4 mg/mL) at a dose of 2 mg/kg 30 min before tracer administration (three animals, 9.7 – 16.1 MBq, 0.3926 ± 0.04 μg). In the final study group, the effect of P-glycoprotein inhibition was assessed by intravenous administration of 15 mg/kg TQD (freshly dissolved on each experimental day in 2.5 % aqueous dextrose solution and injected intravenously via a tail vein at a volume of 3 mL/kg over 1 min) 60 min prior to tracer administration (three animals, 13.9 – 26.8 MBq, 0.7451 ± 0.11 μg).
Anaesthetized animals were positioned in the imaging chamber of the microPET scanner, which was kept at 38 °C throughout the experiment. A stereotactic holder attached to the bed, consisting of ear plugs and a tooth bar, was used to fix the animal's head to ensure a reproducible position during the PET studies. [^18F]FE@SUPPY (27.91 ± 13.82 MBq) dissolved in 0.48 ± 0.22 mL phosphate-buffered saline (pH 7.4) was administered as a bolus via a tail vein. Dynamic PET imaging was performed over 60 min in all animals. At the end of the PET scan the animals were killed, a terminal blood sample was collected and whole brains were removed for testing of metabolite stability.
For all PET scans (rats and xenografted mice), list mode data were acquired with an energy window of 350 – 750 keV (rats) or 250 – 750 keV (mice) and a 6-ns timing window. Before each PET scan, a transmission scan using a ^57Co point source was recorded over 10 min. The PET data from the 60-min dynamic scans were sorted into three-dimensional sinograms according to the following frame sequence: 6 × 20 s, 5 × 60 s, 4 × 120 s, 3 × 300 s and 3 × 600 s. For the 90-min scans (in the xenografted mice) the following frame sequence was used: 8 × 5 s, 2 × 10 s, 2 × 30 s, 3 × 60 s, 2 × 150 s, 2 × 300 s, 4 × 600 s and 2 × 900 s. PET images were reconstructed by Fourier rebinning followed by filtered back projection with a ramp filter. The resulting voxel size was 0.6 × 0.6 × 0.8 mm for rats or 0.4 × 0.4 × 0.8 mm for mice. The standard data correction protocol (normalization, attenuation and decay correction) was applied to the data. A calibration factor for converting units of microPET images into absolute radioactivity concentration units was first generated by imaging a phantom filled with a known concentration of [^18F]FDG.
Rat brains were manually outlined on multiple planes of the PET summation images using the image analysis software PMOD 3.1 (Pmod Ltd, Zürich, Switzerland) or Amide. Volumes of interest in the brain or solid tissue mass (xenografts) were transferred to the PET images of the individual time frames and time–activity curves (TACs) expressed in units of kilobecquerels per millilitre were calculated. To facilitate comparison of TACs of different animals, radioactivity concentrations were normalized to dose and weight and expressed as standardized uptake value (SUV, %ID/cm^3 or %ID/g). […]

human A1R = test system: human A1R; parameters: method as in earlier work; settings: cited from earlier work
human A2AR = test system: human A2AR; parameters: method as in earlier work; settings: cited from earlier work
[5] = read-out: Ki, affinity for rat A3R

Row | Compound | reduction in plasma concentration of [^18F]FE@SUPPY at 60 min after injection [3] [%] | Ki (rat A3R [1]; [5]) [nM] | reduction in peak brain activity of [^18F]FE@SUPPY as compared with DMSO administration (A3R) [%] | reduction in brain AUC of [^18F]FE@SUPPY as compared with DMSO administration (A3R) [%] | further results
1 | CCSC(=O)c1c(CC)nc(-c2ccccc2)c(C(=O)OCCF)c1CC [[^18F]FE@SUPPY, 5-(2-[^18F]fluoroethyl)-2,4-diethyl-3-(ethylsulfanylcarbonyl)-6-phenylpyridine-5-carboxylate] | – | – | – | – | Ki (human A3R): 4.2 nM; Ki (rat A3R [1]; read-out: Ki, affinity towards rat A3R): 600 nM
2 | [^18F]FDG [reference compound] | – | – | – | – | uptake in CHO tissue mass [2]: 5.4 %ID/g; uptake in CHO-A3 tissue mass [2]: 6.3 %ID/g
3 | CCCOC(=O)c1c(-c2ccccc2)nc(CC)c(C(=O)SCC)c1CCC [MRS1523, reference compound] | 36 | 113 | 34.1 | 27.6 | fold higher affinity of MRS1523 for rat A3R compared with FE@SUPPY (rat A3R [4]): 5.31 fold
4 | CCSC(=O)c1c(CC)nc(-c2ccccc2)c(C(=O)OCCF)c1CC [FE@SUPPY] | 27 | 600 | 16.7 | 5.4 | affinity for human A1R (human A1R): micromolar range; affinity for human A2AR (human A2AR): micromolar range
